The source of these data is paper PMC7582822, “Constituents of Coreopsis lanceolata Flower and Their Dipeptidyl Peptidase IV Inhibitory Effects” (Molecules, 2020).

Read-outs that look alike come from different tables or passages of the source.

One may read the IC50 as the point on the concentration scale where inhibition reaches its midpoint.

The target of the assay is T1, human recombinant DPP-IV enzyme (Homo sapiens, UniProt P27487).
T1 construct: purchased Cayman Chemical
Briefly: DPP-IV inhibitor screening assay (Cayman kit, fluorogenic H-Gly-Pro-AMC substrate). The assay is classed as biochemical. The settings on record: for DPP-IV inhibitory effect (in words): isolates tested up to 100 μM. The procedure: Briefly, a DDP assay buffer consisting of 20 mM Tris-HCL (pH 8.0), […] and 1 mM EDTA was used for the assay solution. Each of the compounds were initially dissolved in DMSO at a concentration of 1 mM. Subsequently, the final concentration of compounds was diluted to 0.1, 1, 10, 25, 50 and 100 μM, respectively. The human recombinant DPP-IV enzyme and the substrate 5 mM H-Gly-Pro conjugated to aminomethylcoumarin (AMC) were put in the same buffer. Diluted assay buffer (30 μL) and diluted enzyme solution (10 μL) were added to a 96-well plate containing 10 μL of solvent (blank) or 10 μL of solvent-dissolved test compounds. The reaction by adding 50 μL of the diluted solution of the fluorogenic substrate was initiated and cleavage of the peptide bond by DPP released the free AMC group. The fluorescence was measured as an excitation wavelength of 350 nm and an emission wavelength of 450 nm using a plate reader (TECAN, Männedorf, Switzerland). The percentage inhibition was expressed as [(DPP-IV level of vehicle-treated control−DPP-IV level of test samples)/DPP-IV level of vehicle-treated control] × 100. Subsequently, the 50% inhibitory concentration (IC50) was determined using GraphPad Prism software (GaraphPad Software, La Jolla, CA, USA) via a dose–response analysis.

The mark [1] stands for this setting: in vitro, compounds at 0.1-100 μM, values in text, read-out: IC50, inhibition of DPP-IV activity.

T1 sequence (P27487 whole entry): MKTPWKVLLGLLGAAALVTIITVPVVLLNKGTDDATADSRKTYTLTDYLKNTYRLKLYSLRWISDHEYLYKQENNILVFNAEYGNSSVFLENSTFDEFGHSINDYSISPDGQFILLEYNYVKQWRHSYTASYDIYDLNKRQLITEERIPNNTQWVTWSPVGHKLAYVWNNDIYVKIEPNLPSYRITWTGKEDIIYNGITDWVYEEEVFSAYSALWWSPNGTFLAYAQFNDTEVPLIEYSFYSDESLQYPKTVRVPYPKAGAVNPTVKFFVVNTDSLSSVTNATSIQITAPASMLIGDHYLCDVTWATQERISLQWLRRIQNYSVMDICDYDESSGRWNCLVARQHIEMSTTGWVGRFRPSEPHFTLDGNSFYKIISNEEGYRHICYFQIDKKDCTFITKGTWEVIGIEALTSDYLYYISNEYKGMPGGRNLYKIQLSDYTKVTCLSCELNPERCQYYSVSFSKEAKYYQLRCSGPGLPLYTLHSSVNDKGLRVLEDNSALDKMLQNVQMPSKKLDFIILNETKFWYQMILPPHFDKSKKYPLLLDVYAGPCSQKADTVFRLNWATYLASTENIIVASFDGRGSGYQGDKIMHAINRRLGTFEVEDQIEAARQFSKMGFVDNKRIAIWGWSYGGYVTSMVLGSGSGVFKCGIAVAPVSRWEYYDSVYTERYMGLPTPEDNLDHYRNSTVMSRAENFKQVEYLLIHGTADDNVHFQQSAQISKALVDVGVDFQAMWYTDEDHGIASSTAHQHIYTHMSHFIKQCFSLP

In the case of `CC#CC#CC#C/C=C/[C@@H](CCCCO)O[C@@H]1O[C@H](CO)[C@@H](O)[C@H](O)[C@H]1O` [Compound 1, (5R)-6E-tetradecene-8,10,12-triyne-1-ol-5-O-β-glucoside], the “DPP-IV inhibitory effect (in words)” value is reported as “did not show their activities”.
In the case of `COc1c(O)ccc(C(=O)/C=C/c2ccc(O)c(O)c2)c1O` [Compound 2, lanceoletin], the concentration for half-maximal inhibition (IC50) by setting is: (dose-response curves, mean ± SD of three independent experiments, read-out: IC50, effect on DPP-IV activity (Figure 3)) 9.55 µM; under setting [1], 9.6 µM.
Consider `COc1ccc(C=CC(=O)c2ccc(OC3OC(CO)C(O)C(O)C3O)c(OC)c2O)cc1O` (stereo not shown) [Compound 3, 3,2′-dihydroxy-4-3′-dimethoxychalcone-4′-glucoside], for which the IC50 under setting [1] was determined as 14.3 µM.
Same read-out and setting: under `COc1ccc(/C=C/C(=O)c2ccc(O)c(OC)c2O)cc1O` [Compound 4] stands 21.6 µM.
Consider `COc1c(O)ccc2c1O/C(=C\c1ccc(O)c(O)c1)C2=O` [Compound 6, leptosidin], for which the “DPP-IV inhibitory effect (in words)” value is reported as “moderate”. The IC50 under setting [1] worked out at 13.3 µM.
For `COc1c(O)ccc2c1O[C@@H](c1ccc(O)c(O)c1)CC2=O` [Compound 7, (2R)-8-methoxybutin], in that order: “moderate” and 64.9 µM.
Turning to `O=c1cc(-c2ccc(O)c(O)c2)oc2cc(O)cc(O)c12` [Compound 8, luteolin], the “DPP-IV inhibitory effect (in words)” value was “did not show their activities”.
`O=c1c(O)c(-c2ccc(O)c(O)c2)oc2cc(O)cc(O)c12` [Compound 9, quercetin]: the “DPP-IV inhibitory effect (in words)” value was “did not show their activities”.
On the same count and under the same terms, under `C/C=C/C#CC#CCCCO[C@@H]1O[C@H](CO)[C@@H](O)[C@H](O)[C@H]1O` [Compound 10, bidenoside C] stands “did not show their activities”; under `C=C[C@H](O)[C@H](/C=C/C#CC#CC#CC)O[C@@H]1O[C@H](CO)[C@@H](O)[C@H](O)[C@H]1O` [Compound 11, (3S,4S)-5E-trideca-1,5-dien-7,9,11-triyne-3,4-diol-4-O-β-glucopyranoside], “did not show their activities”.
